The assay deals with T1, Gag-Pol polyprotein [600-1027,R876K]/[600-1155] (Human immunodeficiency virus 1, UniProt P03366, R876K).
T1 construct: 600-1027; 600-1155
The assay can be described thus: HIV-1 RT Assay.

A word on the IC50: it is the midpoint of a concentration-inhibition curve. High values mean lower potency, low ones higher potency. On to `Nc1ccc(OCc2ccnc3c2NC(=O)c2cccnc2N3C2CC2)cc1` [7-(4-aminophenoxymethyl)-2-cyclopropyl-2,4,9,15-tetraazatricyclo[9.4.0.0^{3,8}]pentadeca-1(11),3,5,7,12,14-hexaen-10-one], for which the IC50 came out at 100 nM.
Take `O=C1Nc2c(CO)ccnc2N(C2CC2)c2ncccc21`: the IC50 (pH 7.8, 22 °C) was 3000 nM. This lies in the single-digit micromolar range.

Values taken from BindingDB's records for doi:10.1021/jm00024a011 (Boehringer Ingelheim Pharmaceuticals, 1995).
